Series [1] addresses T1, hA2B AR (Homo sapiens, UniProt P29275).
T1 construct: expressed in transfected cells; host or cells: CHO cells
T1 sequence (P29275 1-332): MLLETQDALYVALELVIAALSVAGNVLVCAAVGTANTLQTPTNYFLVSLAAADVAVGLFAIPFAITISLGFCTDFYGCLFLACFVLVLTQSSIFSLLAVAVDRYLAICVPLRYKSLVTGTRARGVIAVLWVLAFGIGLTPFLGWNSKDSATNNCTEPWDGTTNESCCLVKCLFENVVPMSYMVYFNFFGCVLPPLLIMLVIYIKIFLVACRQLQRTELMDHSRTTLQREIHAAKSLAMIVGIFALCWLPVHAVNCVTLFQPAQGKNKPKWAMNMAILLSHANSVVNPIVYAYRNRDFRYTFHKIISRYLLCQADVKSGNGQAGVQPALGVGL
Kind of series: cAMP assay, stimulation of cAMP production in hA2B CHO cells (agonism). The format is cell-based. The note with it: for Emax at 1 µM: CHO, compound at 1µM, in comparison with NECA (1µM = 100%), read-out: Efficacy hA2B (cAMP assays) (converted); for EC50: hA2B CHO cells, means ± SEM of four assays. The procedure: (§1) The amino-3,5-dicyanopyridines 1–20 were tested for their affinity at hA1, hA2A, and hA3 ARs, stably transfected in Chinese Hamster Ovary (CHO) cells, and were also studied as hA2B agonists by evaluating their stimulatory effect on cAMP production in CHO cells, stably expressing the hA2B AR.
(§2) CHO cells transfected with hA1, hA2A, hA2B, and hA3 ARs were grown adherently and maintained in Dulbecco’s modified Eagle’s medium (Sigma-Aldrich, Milan, Italy) with nutrient mixture F12, containing 10% fetal calf serum, penicillin (100 U/mL), streptomycin (100 μg/mL), l-glutamine (2 mM) and geneticin (G418; 0.2 mg/mL) at 37°C in 5% CO2/95% air until the use in cAMP assays. For membrane preparation, the culture medium was removed, and the cells were washed with phosphate-buffered saline and scraped off T75 flasks in ice-cold hypotonic buffer (5 mM Tris HCl, 1 mM EDTA, pH 7.4). The cell suspension was homogenized with a Polytron, centrifuged for 30 min at 40000 g at 4°C, and the resulting membrane pellet was used for competition binding experiments.
CHO cells transfected with hAR subtypes were washed with phosphate-buffered saline, detached with trypsin and centrifuged for 10 min at 200 g. Cells were seeded in 96-well white half-area microplate (Perkin Elmer, Boston, USA) in a stimulation buffer composed of Hank Balanced Salt Solution (Sigma-Aldrich, Milan, Italy), 5 mM HEPES, 0.5 mM Ro 20-1724, and 0.1% BSA. cAMP levels were then quantified by using the AlphaScreen cAMP Detection Kit (Perkin Elmer) following the manufacturer’s instructions. At the end of the experiments, plates were read with the Perkin Elmer EnSight Multimode Plate Reader.
In general terms: cAMP levels reflect the balance of adenylyl cyclase and phosphodiesterase activity.

The target of series [2] is T2, hA1 AR (Homo sapiens, UniProt P30542).
T2 construct: expressed in transfected cells; host or cells: CHO cells
T2 sequence (P30542 1-326): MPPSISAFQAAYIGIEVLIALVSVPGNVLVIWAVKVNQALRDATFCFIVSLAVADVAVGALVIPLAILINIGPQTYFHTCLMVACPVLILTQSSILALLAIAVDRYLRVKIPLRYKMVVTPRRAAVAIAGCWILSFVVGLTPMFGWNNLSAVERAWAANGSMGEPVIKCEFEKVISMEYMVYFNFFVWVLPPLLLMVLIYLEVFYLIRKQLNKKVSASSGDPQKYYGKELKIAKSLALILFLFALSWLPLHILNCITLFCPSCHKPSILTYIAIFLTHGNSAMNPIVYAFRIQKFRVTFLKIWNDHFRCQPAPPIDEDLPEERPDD
Kind of series: [3H]DPCPX competition binding to hA1 CHO cell membranes. The note with it: for I% hA1: percentage of inhibition at 1µM, [3H]DPCPX. The procedure:
as §2
(§3) All synthesized compounds have been tested for their affinity to hA1, hA2A, and hA3 ARs. Competition experiments to hA1 ARs were carried out incubating 1 nM [^3H]-8-cyclopentyl-1,3-dipropylxanthine ([^3H]-DPCPX) with membrane suspension (50 μg of protein/100 μL) and different concentrations of the examined compounds at 25°C for 90 min in 50 mM Tris HCl, pH 7.4. […] Inhibition experiments to hA2A ARs were performed incubating the radioligand [^3H]-ZM241385 (4-(2-[7-Amino-2-(2-furyl)[1,2,4]triazolo[2,3-a][1,3,5]triazin-5-ylamino]ethyl)phenol) (1 nM) with the membrane suspension (50 μg of protein/100 μL) and different concentrations of the examined compounds for 60 min at 4°C in 50 mM Tris HCl (pH 7.4), 10 mM MgCl2. Non-specific binding was determined in the presence of ZM241385 (1 μM) and was about 20% of the total binding. Competition binding experiments to A3 ARs were carried out incubating the membrane suspension (50 μg of protein/100 μL) with 0.5 nM [^125I]-N^6-(4-aminobenzyl)-N-methylcarboxamidoadenosine ([^125I]-ABMECA) in the presence of different concentration of the examined compounds for an incubation time of 120 min at 4°C in 50 mM Tris HCl (pH 7.4), 10 mM MgCl2, and 1 mM EDTA. Non-specific binding was defined as binding in the presence of 1μM ABMECA and was always < 10% of the total binding. Bound and free radioactivity were separated by filtering the assay mixture through Whatman GF/B glass fiber filters using a Brandel cell harvester (Brandel Instruments, Unterföhring, Germany). The filter bound radioactivity was counted by Packard Tri Carb 2810 TR scintillation counter (Perkin Elmer, Boston, MA, USA).
(§4) The protein concentration was determined according to a Bio-Rad method with bovine albumin as a standard reference. Inhibitory binding constant (Ki) values were calculated from those of IC50 according to Cheng & Prusoff equation Ki = IC50/(1+[C*]/KD*), where [C*] is the concentration of the radioligand and KD* its dissociation constant. Ki and IC50 values were calculated by non-linear regression analysis using the equation for a sigmoid concentration-response curve (Graph-PAD Prism, San Diego, CA, USA).

Series [3] deals with T3, hA2A AR (Homo sapiens, UniProt P29274).
T3 construct: expressed in transfected cells; host or cells: CHO cells
T3 sequence (P29274 whole entry): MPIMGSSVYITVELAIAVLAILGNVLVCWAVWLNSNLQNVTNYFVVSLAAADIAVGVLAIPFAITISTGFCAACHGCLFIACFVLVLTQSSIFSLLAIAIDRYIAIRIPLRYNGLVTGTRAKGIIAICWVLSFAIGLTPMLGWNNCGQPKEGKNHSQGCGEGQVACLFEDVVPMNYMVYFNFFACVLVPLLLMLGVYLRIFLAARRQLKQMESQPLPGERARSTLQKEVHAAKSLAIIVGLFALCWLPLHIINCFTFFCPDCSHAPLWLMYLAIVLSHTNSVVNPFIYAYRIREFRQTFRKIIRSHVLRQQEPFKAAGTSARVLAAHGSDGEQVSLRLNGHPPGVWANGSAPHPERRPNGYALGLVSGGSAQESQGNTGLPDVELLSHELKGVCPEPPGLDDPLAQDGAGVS
Put plainly: [3H]ZM241385 competition binding to hA2A CHO cell membranes. Conditions: for I% hA2A: percentage of inhibition at 1µM, [3H]ZM241385; for Ki: [3H]ZM241385, hA2A CHO cells, means ± SEM. The procedure: as §2, §3, §4

Series [4] has as its target T4, hA3 AR (Homo sapiens, UniProt P0DMS8).
T4 construct: expressed in transfected cells; host or cells: CHO cells
T4 sequence (P0DMS8 1-318): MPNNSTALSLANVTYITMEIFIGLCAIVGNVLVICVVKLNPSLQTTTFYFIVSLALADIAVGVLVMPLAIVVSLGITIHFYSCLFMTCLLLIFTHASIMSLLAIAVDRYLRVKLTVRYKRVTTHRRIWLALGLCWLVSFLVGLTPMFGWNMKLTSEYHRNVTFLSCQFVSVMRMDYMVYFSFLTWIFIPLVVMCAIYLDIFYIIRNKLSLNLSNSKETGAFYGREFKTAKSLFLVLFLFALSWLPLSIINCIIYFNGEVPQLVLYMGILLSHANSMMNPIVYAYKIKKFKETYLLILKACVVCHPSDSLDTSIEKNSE
Kind of series: [125I]AB-MECA competition binding to hA3 CHO cell membranes. The note with it: for inhibition at 1 µM: percentage of inhibition at 1µM; for Ki: hA3 CHO cells, means ± SEM. The procedure:
as §2, §3, §4

The target of series [5] is T2, hA1 AR. Put plainly: Modulation of Forskolin-stimulated cAMP levels in hA1 CHO cells. The format is cell-based. The note with it: Forskolin 5 µM; for EC50: means ± SEM of four experiments, read-out: EC50 (potency to increase Forskolin-stimulated cAMP levels, hA1 CHO cells); for Efficacy (modulation of Forskolin-stimulated cAMP, hA1 CHO cells): normalized to DPCPX (set at 100%). The procedure:
as §1
For membrane preparation, the culture medium was removed, and the cells were washed with phosphate-buffered saline and scraped off T75 flasks in ice-cold hypotonic buffer (5 mM Tris HCl, 1 mM EDTA, pH 7.4). The cell suspension was homogenized with a Polytron, centrifuged for 30 min at 40000 g at 4°C, and the resulting membrane pellet was used for competition binding experiments.
CHO cells transfected with hAR subtypes were washed with phosphate-buffered saline, detached with trypsin and centrifuged for 10 min at 200 g. […] At the end of the experiments, plates were read with the Perkin Elmer EnSight Multimode Plate Reader.

Series [6] has as its target T1, hA2B AR. Conditions: cited from earlier work.

Like-named read-outs stand apart in the source and are kept apart here.

On to `C=CCOc1ccc(-c2c(C#N)c(N)nc(SCc3ncc[nH]3)c2C#N)cc1` [Compound 3, 2-Amino-6-[(1H-imidazol-2-ylmethyl)sulfanyl]-4-[4-(prop-2-en-1-yloxy)phenyl]pyridine-3,5-dicarbonitrile], for which, in series [1], the Emax at 1 µM is 56% and the response was half-maximal at 27 ± 3 nM (EC50). In series [2], this compound gave a Ki of 16 ± 2 nM. Moreover, the “I% hA2A” value in series [3] was found to be 17%. This compound showed an inhibition at 1 µM in series [4] of 8%. Further, in series [5], the EC50 came to 19.6 ± 1.7 nM and the “Efficacy (modulation of Forskolin-stimulated cAMP, hA1 CHO cells)” value is on record as 39 ± 4%.
Turning to `CCOc1ccc(-c2c(C#N)c(N)nc(SCc3ncc[nH]3)c2C#N)cc1` [Compound 5, 2-(((1H-Imidazol-2-yl)methyl)thio)-6-amino-4-(4-ethoxyphenyl)pyridine-3,5-dicarbonitrile], the “Efficacy hA2B (cAMP assays)” value in series [6] (at 1µM, in comparison with NECA (1µM = 100%)) is 62%.
Turning to `N#Cc1c(N)nc(SCc2ncc[nH]2)c(C#N)c1-c1ccc(F)cc1` [Compound 8, 2-Amino-4-(4-fluorophenyl)-6-[(1H-imidazol-2-ylmethyl)sulfanyl]pyridine-3,5-dicarbonitrile], the melting point is 223 to 225 °C (dec.). In addition, in series [1], the Emax at 1 µM is 76% and the EC50 was 18 ± 2 nM. In series [2], this compound showed a Ki of 0.78 ± 0.08 nM. Further, the Ki in series [3] stood at 139 ± 12 nM. Also, the affinity in series [4] corresponds to a Ki of 410 ± 38 nM. Besides, in series [5], the EC50 came out at 1.34 ± 0.11 nM and the “Efficacy (modulation of Forskolin-stimulated cAMP, hA1 CHO cells)” value was determined as 34 ± 3%.
As to `CSc1ccc(-c2c(C#N)c(N)nc(SCc3ncc[nH]3)c2C#N)cc1` [Compound 11, 2-Amino-6-[(1H-imidazol-2-ylmethyl)sulfanyl]-4-[4-(methylsulfanyl)phenyl]pyridine-3,5-dicarbonitrile], the melting point was 257 to 259 °C (dec.). In addition, in series [1], the Emax at 1 µM is 30% and the EC50 was determined as 36 ± 3 nM. In series [2], the Ki worked out at 8.32 ± 0.78 nM. Besides, the Ki in series [3] was 227 ± 21 nM. This compound returned a Ki in series [4] of 388 ± 29 nM. Moreover, in series [5], the EC50 is 8.87 ± 0.64 nM and the “Efficacy (modulation of Forskolin-stimulated cAMP, hA1 CHO cells)” value amounted to 52 ± 4%.
As for `N#Cc1c(N)nc(NCCO)c(C#N)c1-c1ccccc1` [Compound 15, 2-Amino-6-[(2-hydroxyethyl)amino]-4-phenylpyridine-3,5-dicarbonitrile], the melting point is 230 to 231 °C. Further, in series [1], the Emax at 1 µM is 1% and the EC50 is over 1000 nM. Moreover, the Ki in series [2] amounted to 943 ± 87 nM. The “I% hA2A” value in series [3] was 1%. Further, the inhibition at 1 µM in series [4] amounted to 1%.
The compound `N#Cc1c(N)nc(-n2ccnc2)c(C#N)c1-c1ccccc1` [Compound 17, 2-Amino-6-(1H-imidazol-1-yl)-4-phenylpyridine-3,5-dicarbonitrile] returned a melting point of 253 to 255 °C. Moreover, in series [1], the Emax at 1 µM is 1% and the EC50 was over 1000 nM. Further, in series [2], the “I% hA1” value was 27%. Also, the “I% hA2A” value in series [3] is listed as 1%. The inhibition at 1 µM in series [4] was found to be 25%.
For `N#Cc1cnc(N)c(C#N)c1-c1ccccc1` [Compound 18, 2-amino-4-phenylpyridine-3,5-dicarbonitrile], the melting point is 244 to 246 °C. For the same compound, in series [1], the Emax at 1 µM is 1% and the EC50 was over 1000 nM. Also, in series [2], the “I% hA1” value was 15%. Also, the “I% hA2A” value in series [3] is on record as 16%. In series [4], this compound gave an inhibition at 1 µM of 5%.
In turn, `COc1ccc(-c2c(C#N)c(N)nc(NCCO)c2C#N)cc1` [Compound 19, 2-Amino-6-[(2-hydroxyethyl)amino]-4-(4-methoxyphenyl)pyridine-3,5-dicarbonitrile] yielded a melting point of 248 to 250 °C. For the same compound, in series [1], the Emax at 1 µM was 1% and the concentration for a half-maximal effect (EC50) was over 1000 nM. For the same compound, the “I% hA1” value in series [2] amounted to 14%. For the same compound, in series [3], the “I% hA2A” value was 2%. In addition, in series [4], the inhibition at 1 µM amounted to 15%.
On to `COC(=O)CSc1nc(N)c(C#N)c(-c2ccc(OC)cc2)c1C#N` [Compound 20, Methyl{[6-amino-3,5-dicyano-4-(4-methoxyphenyl)pyridin-2-yl]sulfanyl}acetate], for which the melting point lay within 218 to 220 °C. In series [1], the Emax at 1 µM is 1% and the EC50 is over 1000 nM. The compound also showed a Ki in series [2] of 987 ± 81 nM. Besides, the “I% hA2A” value in series [3] came out at 1%. The compound also gave an inhibition at 1 µM in series [4] of 5%.
Regarding `CCCn1c(=O)c2[nH]c(C3CCCC3)nc2n(CCC)c1=O` [DPCPX, 8-Cyclopentyl-1,3-dipropylxanthine, reference compound], in series [5], the “Efficacy (modulation of Forskolin-stimulated cAMP, hA1 CHO cells)” value was found to be 100 ± 9%.
For `N#Cc1c(N)nc(SCc2ncc[nH]2)c(C#N)c1-c1ccccc1` [LUF5833, 2-amino-6-[(1H-imidazol-2-ylmethyl)sulfanyl]-4-phenylpyridine-3,5-dicarbonitrile], the “Efficacy hA2B (cAMP assays)” value in series [6] (in comparison with NECA) is 81%.

As a reminder, the EC50 is the concentration that produces a half-maximal response. A word on the Ki: it is a measure of affinity in units of concentration, obtained from inhibition or displacement. Read a high Ki as a looser hold on the target. The term inhibition denotes the relative decrease from the control value, in per cent. Read a low inhibition as a response near the control. The term melting point denotes the temperature, or range, at which the solid turns liquid.

Source of the values: PMC6958422 (Pharmaceuticals, 2019).
